# Experimental data: US11576922B2, “CD73 inhibitors” (ORIC Pharmaceuticals, Inc., priority 2017, dated 2023)
# Several values for one entry are separate records, joined by “and”; a condition that tells them apart may be missing. Equal values may be shown once.
# Target: T1, CD73 (Homo sapiens, UniProt P21589)
# T1 sequence (P21589 27-549): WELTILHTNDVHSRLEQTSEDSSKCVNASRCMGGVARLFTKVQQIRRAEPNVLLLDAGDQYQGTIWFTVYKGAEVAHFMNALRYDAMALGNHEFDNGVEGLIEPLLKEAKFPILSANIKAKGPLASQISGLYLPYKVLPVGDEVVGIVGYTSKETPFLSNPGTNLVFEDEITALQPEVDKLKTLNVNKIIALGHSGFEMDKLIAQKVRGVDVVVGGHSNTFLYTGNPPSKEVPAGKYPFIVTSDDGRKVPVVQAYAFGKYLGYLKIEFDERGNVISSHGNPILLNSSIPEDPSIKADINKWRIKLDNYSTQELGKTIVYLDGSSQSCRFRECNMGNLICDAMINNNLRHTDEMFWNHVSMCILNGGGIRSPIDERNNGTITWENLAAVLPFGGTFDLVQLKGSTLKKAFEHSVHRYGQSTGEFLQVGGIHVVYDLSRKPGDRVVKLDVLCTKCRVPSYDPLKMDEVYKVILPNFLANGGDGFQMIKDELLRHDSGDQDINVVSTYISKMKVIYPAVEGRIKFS
# Test: Example A1: Biochemical Assay (CD73 inhibition, Malachite Green detection of AMP hydrolysis)
# Details: CD73 0.3208 nM, AMP 15 μM, Tris-HCl pH 7.4, Malachite Green, absorbance 620 nm; read-out: Biochemical IC50
# Protocol: Example A1: Biochemical Assay
# Assay Reaction Conditions
# • Assay Volume: 70 μl • Reaction Volume: 50 μl • CD73: 0.3208 nM • AMP: 15 μM • Assay Buffer: 2 5 mM Tris-HCL, pH 7.4, 0.01% Brij-35, 0.01% BSA, 5 mM MgCl2 Assay Procedure:
# Made dose titration of testing compounds in assay buffer, 10 points ½ log titrations in duplicates starting at 100 μM.
# Added 25 μl of CD73 to each well for a final concentration of […].
# Incubated at RT for 15 min.
# Added 25 μl of AMP to each well for a final concentration of 15 μM.
# Incubated at RT for 10 min.
# Added 10 μl of Malachite Green Reagent A, incubate at RT for 10 min.
# Added 10 μl of Malachite Green Reagent B, incubate at RT for 45 min.
# Read the Absorbance on Envision plate reader using excitation filter: Cy5 […].
# The ability of the compounds disclosed herein to inhibit CD73 activity was quantified and the respective IC50 values were determined. Table 1 provides the biochemical IC50 values of compounds disclosed herein.
row,SMILES,IC50
1,"O=P(O)(O)CP(=O)(O)OC[C@H]1O[C@@H](n2nnc3c(NCc4ccccc4)nc(Cl)nc32)[C@H](O)[C@@H]1O [Example 1, (((((2R,3S,4R,5R)-5-(7-(Benzylamino)-5-chloro-3H-[1,2,3]triazolo[4,5-d]pyrimidin-3-yl)-3,4-dihydroxytetrahydrofuran-2-yl)methoxy)(hydroxy)phosphoryl)methyl)phosphonic acid]",100 to 1000 nM
2,"O=P(O)(O)CP(=O)(O)OC[C@H]1C[C@@H](n2nnc3c(NCc4ccccc4Cl)nc(Cl)nc32)[C@H](O)[C@@H]1O [Example 2, (((((1R,2R,3S,4R)-4-(5-chloro-7-((2-chlorobenzyl)amino)-3H-[1,2,3]triazolo[4,5-d]pyrimidin-3-yl)-2,3-dihydroxycyclopentyl)methoxy)(hydroxy)phosphoryl)methyl)phosphonic acid]",100 to 1000 nM
3,"O=P(O)(O)CP(=O)(O)OC[C@H]1O[C@@H](n2nnc3c(NC[C@H]4CCOC4)nc(Cl)nc32)[C@H](O)[C@@H]1O [Example 3, (((((2R,3S,4R,5R)-5-(5-chloro-7-((((R)-tetrahydrofuran-3-yl)methyl)amino)-3H-[1,2,3]triazolo[4,5-d]pyrimidin-3-yl)-3,4-dihydroxytetrahydrofuran-2-yl)methoxy)(hydroxy)phosphoryl)methyl) phosphonic acid]",100 to 1000 nM
4,"Nc1nc(Cl)nc2c1nnn2[C@@H]1O[C@H](COP(=O)(O)CP(=O)(O)O)[C@@H](O)[C@H]1O [Example 4, (((((2R,3S,4R,5R)-5-(7-amino-5-chloro-3H-[1,2,3]triazolo[4,5-d]pyrimidin-3-yl)-3,4-dihydroxytetrahydrofuran-2-yl)methoxy)(hydroxy)phosphoryl)methyl) phosphonic acid]",> 1000 nM
5,"O=P(O)(O)CP(=O)(O)OC[C@H]1O[C@@H](n2nnc3c(NCC4CC4)nc(Cl)nc32)[C@H](O)[C@@H]1O [Example 5, (((((2R,3S,4R,5R)-5-(5-chloro-7-((cyclopropylmethyl)amino)-3H-[1,2,3]triazolo[4,5-d]pyrimidin-3-yl)-3,4-dihydroxytetrahydrofuran-2-yl)methoxy)(hydroxy)phosphoryl)methyl) phosphonic acid]",100 to 1000 nM
6,"O=P(O)(O)CP(=O)(O)OC[C@H]1O[C@@H](n2nnc3c(NCc4ccccc4Cl)nc(Cl)nc32)[C@H](O)[C@@H]1O [Example 6, (((((2R,3S,4R,5R)-5-(5-chloro-7-((2-chlorobenzyl)amino)-3H-[1,2,3]triazolo[4,5-d]pyrimidin-3-yl)-3,4-dihydroxytetrahydrofuran-2-yl)methoxy)(hydroxy)phosphoryl)methyl) phosphonic acid]",< 100 nM
7,"O=P(O)(O)CP(=O)(O)OC[C@H]1O[C@@H](n2nnc3c(NCc4ccc(Cl)cc4)nc(Cl)nc32)[C@H](O)[C@@H]1O [Example 7, (((((2R,3S,4R,5R)-5-(5-chloro-7-((4-chlorobenzyl)amino)-3H-[1,2,3]triazolo[4,5-d]pyrimidin-3-yl)-3,4-dihydroxytetrahydrofuran-2-yl)methoxy)(hydroxy)phosphoryl)methyl) phosphonic acid]",< 100 nM
8,"C[C@H](Nc1nc(Cl)nc2c1nnn2[C@@H]1O[C@H](COP(=O)(O)CP(=O)(O)O)[C@@H](O)[C@H]1O)c1ccccc1 [Example 8, (((((2R,3S,4R,5R)-5-(5-chloro-7-(((S)-1-phenylethyl)amino)-3H-[1,2,3]triazolo[4,5-d]pyrimidin-3-yl)-3,4-dihydroxytetrahydrofuran-2-yl)methoxy)(hydroxy)phosphoryl)methyl) phosphonic acid]",< 100 nM
9,"C[C@H](Nc1nc(Cl)nc2c1nnn2[C@@H]1O[C@H](COP(=O)(O)CP(=O)(O)O)[C@@H](O)[C@H]1O)c1ccccc1Cl [Example 9, (((((2R,3S,4R,5R)-5-(5-chloro-7-(((S)-1-(2-chlorophenyl)ethyl)amino)-3H-[1,2,3]triazolo[4,5-d]pyrimidin-3-yl)-3,4-dihydroxytetrahydrofuran-2-yl)methoxy)(hydroxy)phosphoryl)methyl) phosphonic acid]",< 100 nM

# More lines, now with the values ahead:
row,IC50,SMILES
1,< 100 nM,"O=P(O)(O)CP(=O)(O)OC[C@H]1OC(n2nnc3c(NC4CCc5ccccc54)nc(Cl)nc32)[C@H](O)[C@@H]1O (stereo in doubt) [Example 31, (((((2R,3S,4R,5S)-5-(5-chloro-7-(((R)-2,3-dihydro-1H-inden-1-yl)amino)-3H-[1,2,3]triazolo[4,5-d]pyrimidin-3-yl)-3,4-dihydroxytetrahydrofuran-2-yl)methoxy)(hydroxy)phosphoryl)methyl) phosphonic acid]"
2,< 100 nM and 100 to 1000 nM,"O=P(O)(O)CP(=O)(O)OC[C@H]1CC(n2nnc3c(NC4CCc5ccccc54)nc(Cl)nc32)[C@H](O)[C@@H]1O (stereo in doubt) [Example 35, (((((1R,2R,3S,4S)-4-(5-chloro-7-(((S)-2,3-dihydro-1H-inden-1-yl)amino)-3H-[1,2,3]triazolo[4,5-d]pyrimidin-3-yl)-2,3-dihydroxycyclopentyl)methoxy) (hydroxy)phosphoryl)methyl)phosphonic acid]"
3,100 to 1000 nM,"O=P(O)(O)CP(=O)(O)OC[C@H]1O[C@@H](n2nnc3c(N4CCCC[C@@H]4c4ccccc4)nc(Cl)nc32)[C@H](O)[C@@H]1O [Example 10, (((((2R,3S,4R,5R)-5-(5-chloro-7-((R)-2-phenylpiperidin-1-yl)-3H-[1,2,3]triazolo[4,5-d]pyrimidin-3-yl)-3,4-dihydroxytetrahydrofuran-2-yl)methoxy)(hydroxy)phosphoryl)methyl) phosphonic acid]"
4,100 to 1000 nM,"O=P(O)(O)CP(=O)(O)OC[C@H]1O[C@@H](n2nnc3c(N4CCC[C@H]4c4ccccc4)nc(Cl)nc32)[C@H](O)[C@@H]1O [Example 11, (((((2R,3S,4R,5R)-5-(5-chloro-7-((S)-2-phenylpyrrolidin-1-yl)-3H-[1,2,3]triazolo[4,5-d]pyrimidin-3-yl)-3,4-dihydroxytetrahydrofuran-2-yl)methoxy)(hydroxy)phosphoryl)methyl) phosphonic acid]"
5,< 100 nM,"C[C@@H](c1ccccc1Cl)N(C)c1nc(Cl)nc2c1nnn2[C@@H]1O[C@H](COP(=O)(O)CP(=O)(O)O)[C@@H](O)[C@H]1O [Example 12, (((((2R,3S,4R,5R)-5-(5-chloro-7-(((S)-1-(2-chlorophenyl)ethyl)(methyl)amino)-3H-[1,2,3]triazolo[4,5-d]pyrimidin-3-yl)-3,4-dihydroxytetrahydrofuran-2-yl)methoxy)(hydroxy)phosphoryl)methyl) phosphonic acid]"
6,< 100 nM,"C[C@@H](c1ccccc1)N(C)c1nc(Cl)nc2c1nnn2[C@@H]1O[C@H](COP(=O)(O)CP(=O)(O)O)[C@@H](O)[C@H]1O [Example 13, (((((2R,3S,4R,5R)-5-(5-chloro-7-(methyl((S)-1-phenylethyl)amino)-3H-[1,2,3]triazolo[4,5-d]pyrimidin-3-yl)-3,4-dihydroxytetrahydrofuran-2-yl)methoxy)(hydroxy)phosphoryl)methyl) phosphonic acid]"
7,< 100 nM,"O=P(O)(O)CP(=O)(O)OC[C@H]1O[C@@H](n2nnc3c(NCc4cccc(Cl)c4)nc(Cl)nc32)[C@H](O)[C@@H]1O [Example 14, (((((2R,3S,4R,5R)-5-(5-chloro-7-((3-chlorobenzyl)amino)-3H-[1,2,3]triazolo[4,5-d]pyrimidin-3-yl)-3,4-dihydroxytetrahydrofuran-2-yl)methoxy)(hydroxy)phosphoryl)methyl) phosphonic acid]"
8,< 100 nM,"CN(Cc1ccccc1)c1nc(Cl)nc2c1nnn2[C@@H]1O[C@H](COP(=O)(O)CP(=O)(O)O)[C@@H](O)[C@H]1O [Example 15, (((((2R,3S,4R,5R)-5-(7-(benzyl(methyl)amino)-5-chloro-3H-[1,2,3]triazolo[4,5-d]pyrimidin-3-yl)-3,4-dihydroxytetrahydrofuran-2-yl)methoxy)(hydroxy)phosphoryl)methyl) phosphonic acid]"
9,< 100 nM,"O=P(O)(O)CP(=O)(O)OC[C@H]1O[C@@H](n2nnc3c(N4CCCC[C@H]4c4ccccc4)nc(Cl)nc32)[C@H](O)[C@@H]1O [Example 16, (((((2R,3S,4R,5R)-5-(5-chloro-7-((S)-2-phenylpiperidin-1-yl)-3H-[1,2,3]triazolo[4,5-d]pyrimidin-3-yl)-3,4-dihydroxytetrahydrofuran-2-yl)methoxy)(hydroxy)phosphoryl)methyl) phosphonic acid]"
10,100 to 1000 nM,"O=P(O)(O)CP(=O)(O)OC[C@H]1O[C@@H](n2nnc3c(N4CCC[C@@H]4c4ccccc4)nc(Cl)nc32)[C@H](O)[C@@H]1O [Example 17, (((((2R,3S,4R,5R)-5-(5-chloro-7-((R)-2-phenylpyrrolidin-1-yl)-3H-[1,2,3]triazolo[4,5-d]pyrimidin-3-yl)-3,4-dihydroxytetrahydrofuran-2-yl)methoxy)(hydroxy)phosphoryl)methyl) phosphonic acid]"
